PMC5607081 (2017)

Tested on: target DNA; 23-bp duplex DNA oligo (DNA, duplex) GCGAATAAGAGGAAGTGAAACCG/CGGTTTCACTTCCTCTTATTCGC
Test: fluorescence polarization titration
Details: 0.20 M NaCl; 10 mM TrisHCl, pH 7.5, 25°C, H2O, no osmolyte; apparent

−log (Kd, M): 9.90 ± 0.12 −log M
SMILES: N=C(N)c1ccc2[nH]c(-c3ccc(-c4nc5cc(C(=N)N)ccc5[nH]4)[se]3)nc2c1
